Like-named read-outs stand apart in the source and are kept apart here. Bridge positions count the residues as written; N and C are the ends. Peptide text beside a SMILES is read from it. I, II: the chains in the order shown.
Columns and labels:
[1] = molecular target: T1, RXFP3 (Homo sapiens, UniProt Q9NSD7); test: cAMP antagonist assay against 10 nM analogue 2 in CHO-K1-RXFP3 cells; assay type: cell-based; settings: for Emax: SEM, read-out: RXFP3 Emax (antagonist efficacy)
T1 construct: expressed in transfected cells; host or cells: CHO-K1 (ATCC), stably transfected
T1 sequence (Q9NSD7 1-469): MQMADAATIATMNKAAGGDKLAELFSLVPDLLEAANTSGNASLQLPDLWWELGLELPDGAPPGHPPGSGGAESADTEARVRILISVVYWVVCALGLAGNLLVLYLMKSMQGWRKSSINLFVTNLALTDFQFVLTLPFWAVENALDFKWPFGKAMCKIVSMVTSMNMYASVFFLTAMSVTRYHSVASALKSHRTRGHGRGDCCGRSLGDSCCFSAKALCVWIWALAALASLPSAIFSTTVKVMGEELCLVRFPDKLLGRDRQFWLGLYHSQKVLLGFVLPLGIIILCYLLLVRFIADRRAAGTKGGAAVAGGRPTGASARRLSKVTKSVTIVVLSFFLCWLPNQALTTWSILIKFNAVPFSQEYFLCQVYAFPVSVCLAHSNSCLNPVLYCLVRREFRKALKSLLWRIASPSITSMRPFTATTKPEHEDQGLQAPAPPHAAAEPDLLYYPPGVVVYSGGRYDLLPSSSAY
Description: (§1) The peptides were tested for their ability to inhibit forskolin induced cAMP activity in CHO-K1-RXFP3 or CHO-K1-RXFP4 cells transfected with a pCRE (cAMP Response Element) β-galactosidase reporter plasmid as previously described[9],[34]. For agonist assays cells were stimulated with forskolin (5 µM for RXFP3, 1 µM for RXFP4) plus or minus increasing concentrations of each peptide for 6 hours. For antagonist assays cells were stimulated with forskolin as in agonist assays plus increasing concentrations of each peptide for 10 minutes followed by stimulation with agonist at an ~EC80 concentration for a further 6 hours (10 nM Analogue 2 for RXFP3 and 16.6 nM Analogue 13 for RXFP4). Each peptide was tested in triplicate and each experiment was performed independently at least three times. Agonist data was expressed as the % Forskolin activity whereby 100% was defined as Forskolin alone and 0% as maximum agonist stimulation (1 µM Analogue 2 for RXFP3 and 1 µM Analogue 13 for RXFP4). […] Data were analysed and plotted using GraphPad PRISM 8 and are expressed as the mean ± SEM of the pooled data. Statistical analysis was conducted using one-way ANOVA with Uncorrected Fisher’s LSD post-hoc analysis in GraphPad Prism version 8.

[2] = molecular target: T2, RXFP4 (Homo sapiens, UniProt Q8TDU9); test: Competition binding in CHO-K1-RXFP4 cells (Eu-DTPA-mINSL5); design: expressed in transfected cells; host or cells: CHO-K1 (ATCC), stably transfected
Description: (§2) Chinese hamster ovary CHO-K1 cells (sourced from American Type Culture Collection (ATCC), Maryland, USA) stably transfected with RXFP3[33] or RXFP4[9] were plated out onto precoated poly-L-lysine 96-well view plates at a density of 50 000 cells per well. Medium was aspirated off and the cells were washed with phosphate-buffered saline (PBS) before competition binding assays were performed with 5 nM Eu-H3B1–22R[34] (RXFP3 ligand) or 5 nM Eu-DTPA-mINSL5[9] (RXFP4 ligand) as previously described. Competition binding curves were performed in triplicate and each experiment was performed independently at least three times. Fluorescent measurements were carried out on a BMG POLARstar plate reader (BMG Labtech, Melbourne, Australia. Pooled data are presented as mean ± S.E of specific binding and are fitted using one-site binding curve in GraphPad Prism version 8 (GraphPad Inc., San Diego, USA). Statistical analyses were conducted using one-way analysis of variance with uncorrected Fisher’s least significant difference (LSD) post-hoc analysis in GraphPad Prism version 8.

[3] = molecular target: T2, RXFP4; test: cAMP antagonist assay against 16.6 nM analogue 13 in CHO-K1-RXFP4 cells; assay type: cell-based; design: expressed in transfected cells; host or cells: CHO-K1 (ATCC), stably transfected; settings: for Emax: SEM, read-out: RXFP4 Emax (antagonist efficacy)
Description: as §1

[4] = molecular target: T1, RXFP3; test: Competition binding in CHO-K1-RXFP3 cells (Eu-H3B1-22R)
Description: as §2

[5] = molecular target: T2, RXFP4; test: cAMP agonist assay (inhibition of forskolin-induced cAMP, pCRE β-galactosidase reporter) in CHO-K1-RXFP4 cells; assay type: cell-based; design: expressed in transfected cells; host or cells: CHO-K1 (ATCC), stably transfected; settings: CHO-K1-RXFP4 cells, inhibition of 1 µM forskolin-induced cAMP, 6 hours; mean ± SEM, n in cell
Description: as §1

[6] = molecular target: T1, RXFP3; test: cAMP agonist assay (inhibition of forskolin-induced cAMP, pCRE β-galactosidase reporter) in CHO-K1-RXFP3 cells; assay type: cell-based; settings: CHO-K1-RXFP3 cells, inhibition of 5 µM forskolin-induced cAMP, 6 hours; mean ± SEM, n in cell
Description: as §1

[7] = CHO-K1 cells stably transfected with RXFP4, competition with 5 nM Eu-DTPA-mINSL5, read-out: RXFP4 Binding Ki
[8] = CHO-K1-RXFP4 cells, block of 16.6 nM analogue 13, read-out: RXFP4 Antagonist potency IC50
[9] = CHO-K1 cells stably transfected with RXFP3, competition with 5 nM Eu-H3B1-22R, read-out: RXFP3 Binding Ki
[10] = CHO-K1-RXFP3 cells, peptide 10 minutes, then 10 nM analogue 2 for 6 hours, 5 µM forskolin, mean ± SEM, read-out: RXFP3 Antagonist potency pIC50 (converted)

T2 sequence (Q8TDU9 whole entry): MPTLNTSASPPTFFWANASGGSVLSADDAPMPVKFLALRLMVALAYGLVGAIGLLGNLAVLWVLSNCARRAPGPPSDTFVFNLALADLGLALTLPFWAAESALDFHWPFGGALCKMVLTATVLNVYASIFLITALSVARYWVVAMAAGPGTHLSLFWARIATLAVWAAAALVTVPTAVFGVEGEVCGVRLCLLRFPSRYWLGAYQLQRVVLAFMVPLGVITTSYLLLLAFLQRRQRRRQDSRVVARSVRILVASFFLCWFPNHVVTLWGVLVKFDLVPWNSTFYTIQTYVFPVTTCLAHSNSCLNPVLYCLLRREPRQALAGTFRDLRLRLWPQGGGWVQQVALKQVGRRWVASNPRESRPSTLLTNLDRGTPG

| Compound | IC50 ([1]; CHO-K1-RXFP3 cells, block of 10 nM analogue 2, read-out: RXFP3 Antagonist potency IC50) [nM] | Emax [1] [%] | Ki [2, 7] [nM] | IC50 [3, 8] [nM] | Emax [3] [%] | Ki [4, 9] [nM] | RXFP4 Activity pEC50 [5] | RXFP3 Activity pEC50 [6] | IC50 [1] [nM] | Ki [2] [nM] | IC50 [3] [nM] | Ki [4] [nM] | IC50 [1, 10] [nM] |
| --- | --- | --- | --- | --- | --- | --- | --- | --- | --- | --- | --- | --- | --- |
| CC[C@H](C)[C@@H]1NC(=O)[C@H](Cc2ccccc2)NC(=O)[C@H](CCC(=O)O)NC(=O)[C@H](CC(C)C)NC(=O)CNC(=O)[C@@H](NC(=O)[C@H](CC(C)C)NC(=O)[C@H](CCCNC(=N)N)NC(=O)[C@@H](NC(=O)CNC(=O)[C@H](Cc2ccc(O)cc2)NC(=O)[C@@H]2CCCN2C(=O)[C@H](C)NC(=O)[C@H](C)NC(=O)[C@@H](N)CCCNC(=N)N)C(C)C)CSSC[C@@H]2NC(=O)[C@@H](NC(=O)[C@H](CC(C)C)NC(=O)[C@@H](NC(=O)[C@H](CCC(N)=O)NC(=O)[C@H](CC(C)C)NC(=O)[C@H](CC(=O)O)NC(=O)[C@@H]3CCC(=O)N3)[C@@H](C)O)CSSC[C@H](NC(=O)CNC(=O)[C@H](CC(=O)O)NC(=O)[C@H]([C@@H](C)O)NC2=O)C(=O)N[C@@H](CO)C(=O)N[C@@H](CCSC)C(=O)N[C@@H]([C@@H](C)O)C(=O)N[C@@H](CC(=O)O)C(=O)N[C@@H](CC(C)C)C(=O)N[C@@H](CO)C(=O)N[C@@H](C)C(=O)N[C@@H](CC(C)C)C(=O)N[C@H](C(=O)O)CSSC[C@@H](C(=O)N[C@@H](CCCNC(=N)N)C(=O)O)NC(=O)[C@H]([C@@H](C)O)NC(=O)[C@H](Cc2ccccc2)NC(=O)[C@H]([C@@H](C)CC)NC(=O)[C@H](C(C)C)NC(=O)[C@H](C)NC(=O)[C@H](CCCNC(=N)N)NC1=O [Analogue 14] | 263 | 66.5 ± 14.8 | 24 | 331 | 37.3 ± 7.6 | 24 | Weak partial agonist (6) | No activity (3) | – | – | – | – | – |
| CC[C@H](C)[C@@H]1NC(=O)[C@H](Cc2ccccc2)NC(=O)[C@H](CCC(=O)O)NC(=O)[C@H](CCCNC(=N)N)NC(=O)CNC(=O)[C@@H](NC(=O)[C@H](CC(C)C)NC(=O)[C@H](CCCNC(=N)N)NC(=O)[C@@H](NC(=O)CNC(=O)[C@H](Cc2ccc(O)cc2)NC(=O)[C@@H]2CCCN2C(=O)[C@H](C)NC(=O)[C@H](C)NC(=O)[C@@H](N)CCCNC(=N)N)C(C)C)CSSC[C@H](N)C(=O)N[C@@H]([C@@H](C)O)C(=O)N[C@@H](CC(=O)O)C(=O)NCC(=O)N[C@@H](C)C(=O)N[C@@H](CO)C(=O)N[C@@H](CCSC)C(=O)N[C@@H](CCCCN)C(=O)N[C@@H](CC(=O)O)C(=O)N[C@@H](CC(C)C)C(=O)N[C@@H](CO)C(=O)N[C@@H](C)C(=O)N[C@@H](CC(C)C)C(=O)N[C@H](C(=O)O)CSSC[C@@H](C(=O)N[C@@H](CCCNC(=N)N)C(=O)O)NC(=O)[C@H]([C@@H](C)O)NC(=O)[C@H](Cc2ccccc2)NC(=O)[C@H]([C@@H](C)CC)NC(=O)[C@H](C(C)C)NC(=O)[C@H]([C@@H](C)O)NC(=O)[C@H](CCCNC(=N)N)NC1=O [Analogue 17] (I: H-RAAPYGVRLCGREFIRTVIFTCR-OH / II: H-CTDGASMKDLSALC-OH; disulfide I:10-II:1, I:22-II:14) | – | 34.8 ± 0.9 | – | – | 36 ± 10 | – | Weak partial agonist (4) | No activity (3) | > 10000 | 40.7 | 34.7 | 19.1 | – |
| CC[C@H](C)[C@@H]1NC(=O)[C@H](Cc2ccccc2)NC(=O)[C@H](CCC(=O)O)NC(=O)[C@H](CCCNC(=N)N)NC(=O)CNC(=O)[C@@H](NC(=O)[C@H](CC(C)C)NC(=O)[C@H](CCCNC(=N)N)NC(=O)[C@@H](NC(=O)CNC(=O)[C@H](Cc2ccc(O)cc2)NC(=O)[C@H](CCCCN)NC(=O)[C@H](C)NC(=O)[C@H](C)NC(=O)[C@@H](N)CCCNC(=N)N)C(C)C)CSSC[C@H](N)C(=O)N[C@@H]([C@@H](C)O)C(=O)N[C@@H](CC(=O)O)C(=O)NCC(=O)N[C@@H](C)C(=O)N[C@@H](CO)C(=O)N[C@@H](CCSC)C(=O)N[C@@H](CCCCN)C(=O)N[C@@H](CC(=O)O)C(=O)N[C@@H](CC(C)C)C(=O)N[C@@H](CO)C(=O)N[C@@H](C)C(=O)N[C@@H](CC(C)C)C(=O)N[C@H](C(=O)O)CSSC[C@@H](C(=O)N[C@@H](CCCNC(=N)N)C(=O)O)NC(=O)[C@H]([C@@H](C)O)NC(=O)[C@H](Cc2ccccc2)NC(=O)[C@H]([C@@H](C)CC)NC(=O)[C@H](C(C)C)NC(=O)[C@H](C)NC(=O)[C@H](CCCNC(=N)N)NC1=O [Analogue 19] (I: H-RAAKYGVRLCGREFIRAVIFTCR-OH / II: H-CTDGASMKDLSALC-OH; disulfide I:10-II:1, I:22-II:14; N-terminus assumed) | – | 76.3 ± 1.8 | 10.2 | 79.4 | 71.3 ± 4.8 | 7.94 | Weak partial agonist (4) | No activity (3) | – | – | – | – | > 10000 |
| CC[C@H](C)[C@@H]1NC(=O)[C@H](Cc2ccccc2)NC(=O)[C@H](CCC(=O)O)NC(=O)[C@H](CCCNC(=N)N)NC(=O)CNC(=O)[C@@H](NC(=O)[C@H](CC(C)C)NC(=O)[C@H](CCCNC(=N)N)NC(=O)[C@@H](NC(=O)CNC(=O)[C@H](Cc2ccc(O)cc2)NC(=O)[C@@H]2CCCN2C(=O)[C@H](C)NC(=O)[C@H](C)NC(=O)[C@@H](N)CCCNC(=N)N)C(C)C)CSSC[C@H](N)C(=O)N[C@@H]([C@@H](C)O)C(=O)N[C@@H](CC(=O)O)C(=O)NCC(=O)N[C@@H](C)C(=O)N[C@@H](CO)C(=O)N[C@@H](CCSC)C(=O)N[C@@H](CCCCN)C(=O)N[C@@H](CC(=O)O)C(=O)N[C@@H](CC(C)C)C(=O)N[C@@H](CO)C(=O)N[C@@H](C)C(=O)N[C@@H](CC(C)C)C(=O)N[C@H](C(=O)O)CSSC[C@@H](C(=O)N[C@@H](CCCNC(=N)N)C(=O)O)NC(=O)[C@H]([C@@H](C)O)NC(=O)[C@H](Cc2ccccc2)NC(=O)[C@H]([C@@H](C)CC)NC(=O)[C@H](C(C)C)NC(=O)[C@H](C)NC(=O)[C@H](CCCNC(=N)N)NC1=O [Analogue 15] (I: H-RAAPYGVRLCGREFIRAVIFTCR-OH / II: H-CTDGASMKDLSALC-OH; disulfide I:10-II:1, I:22-II:14) | – | 43.5 ± 12.1 | 22.9 | – | 49.4 ± 6.2 | 15.5 | Weak partial agonist (5) | No activity (4) | – | – | – | – | > 10000 |

Source: article PMC6882824, “Engineering of chimeric peptides as antagonists for the G protein-coupled receptor, RXFP4” (Scientific Reports, 2019)
